{"source": "paper PMC8694022", "about": "“Molecular Docking-Based Screening for Novel Inhibitors of the Human Immunodeficiency Virus Type 1 Protease that Effectively Reduce the Viral Replication in Human Cells” (Journal of AIDS & clinical research, 2021)", "key": {"[1]": {"biological_target": "T1, HIV-1 PR subtype A (Human immunodeficiency virus type 1 group M subtype A, UniProt P24740)", "T1 construct": "HIV type 1 (HIV-1) PR is a homodimeric enzyme of 99 amino acids; made in house", "T1 sequence (P24740 482-580)": "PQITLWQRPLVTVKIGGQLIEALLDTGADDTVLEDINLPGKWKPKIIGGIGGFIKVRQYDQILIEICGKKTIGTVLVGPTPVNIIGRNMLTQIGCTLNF", "assay": "In vitro PR inhibition assay, subtype A", "assay_type": "biochemical", "parameters": "key: [+] or [−] indicating PR inhibition or no inhibition, respectively; [+] or [−] indicating PR inhibition or no inhibition, respectively", "details": "compound at 80 μM, 37 °C", "procedure": "(§1) The compounds were obtained from the NCI/DTP and solubilized in DMSO (Sigma) for use in HIV-1 PR inhibition assays. Cloning, expression, and purification procedures of HIV-1 PRs obtained from […] samples have been previously described elsewhere. For detailed information of mutations harbored in the multi PI-resistant HIV-1PR as compared to the PI-sensitive PR, full amino acid sequences is given in supplementary materials (Figure S1). HIV-1 PRs subtype variants were assayed kinetically at 80 μM for inhibitory activity at 37 °C using selected compounds as previously described.\n(§2) We explored the hypothesis that compounds selected in silico for binding to the hinge region of PR are effective as inhibitors of HIV-1 replication, including multi-PI resistant viruses, in human cells. Our of 139,739 compounds, the top 40 highest-scoring compounds targeting the structural pockets in the hinge of the PR (Figure S1) were obtained from the NCI/DTP for use in HIV PR inhibition assays. Compounds were initially tested in vitro at 80 μM to screen for inhibitory activity against PR subtypes A, B or C. Compounds inhibiting at least one subtype of the PR were considered as candidate compounds for further experiments."}, "[2]": {"biological_target": "T2, HIV-1 PR subtype B (Human immunodeficiency virus type 1 group M subtype B, UniProt P04585)", "T2 construct": "HIV type 1 (HIV-1) PR is a homodimeric enzyme of 99 amino acids; made in house", "assay": "In vitro PR inhibition assay, subtype B", "assay_type": "biochemical", "parameters": "key: [+] or [−] indicating PR inhibition or no inhibition, respectively; [+] or [−] indicating PR inhibition or no inhibition, respectively", "details": "compound at 80 μM, 37 °C", "procedure": "as §1, §2"}, "[3]": {"biological_target": "T3, HIV-1 PR subtype C (Human immunodeficiency virus type 1 group M subtype C, UniProt Q75002)", "T3 construct": "HIV type 1 (HIV-1) PR is a homodimeric enzyme of 99 amino acids; made in house", "T3 sequence (Q75002 493-591)": "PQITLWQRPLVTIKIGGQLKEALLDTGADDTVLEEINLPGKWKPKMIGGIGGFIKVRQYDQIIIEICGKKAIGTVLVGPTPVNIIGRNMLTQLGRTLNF", "assay": "In vitro PR inhibition assay, subtype C", "assay_type": "biochemical", "parameters": "key: [+] or [−] indicating PR inhibition or no inhibition, respectively; [+] or [−] indicating PR inhibition or no inhibition, respectively", "details": "compound at 80 μM, 37 °C", "procedure": "as §1, §2"}, "[4]": {"tested_on": "TZM-bl cells", "assay": "Cell viability assay (CellTiter 96 AQueous) in TZM-bl cells", "assay_type": "cell-based, human", "procedure": "(§3) Viability in presence of compounds was measured at day 4 or 7, TZM-bl cells or PBMCs, using CellTiter 96 AQueous one solution cell proliferation assay (Promega) following manufacturer instructions. Toxicity of compounds was defined as a concentration that produced more than 10% decline in viability of TZM-bl cells or PBMCs were viable at days 4 or 7 of exposure, respectively, compared with DMSO-treated controls."}, "[5]": {"tested_on": "PBMCs", "assay": "Cell viability assay (CellTiter 96 AQueous) in PBMCs", "assay_type": "cell-based, human", "details": "200 μM, day 7", "procedure": "as §3"}, "[6]": {"tested_on": "HIV-1AD", "assay": "Anti-viral activity in TZM-bl cells, PI-sensitive HIV-1AD (luciferase)", "assay_type": "cell-based", "procedure": "(§4) Anti-viral activity was evaluated ex vivo by adding the highest non-toxic concentration of compound or 25uM RTV (Sigma) solubilized in DMSO on the day of infection by PI-sensitive (HIV-1AD) or multi (RTV and IDV) PI-resistant (HIV-1AD02) HIV-1 variants at 25 or 45 TCID50 per ml for PBMCs or TZM-bl cells, respectively. Replication was determined on post-infection day 7 in PBMC by measuring supernatant p24 antigen levels (Perkin-Elmer), or day 4 in TZM-bl cells by measuring luciferase activity using the luciferase assay system (Promega, Madison, WI) and the microplate luminometer Monolight 3096 (BD Biosciences, San Jose, CA). Inhibitory concentration (IC)50 was calculated based on anti-viral activity in TZM-bl cells with a nonlinear regression analysis (GraphPad Prism 6 Software). Reduction of viral replication by more than 50% was considered successful anti-viral activity. Combinatorial effect of drug with RTV was tested at IC50, and higher or lower concentrations than IC50."}, "[7]": {"tested_on": "HIV-1AD02", "assay": "Anti-viral activity in TZM-bl cells, multi PI-resistant HIV-1AD02 (luciferase)", "assay_type": "cell-based", "procedure": "as §4"}, "[8]": {"tested_on": "HIV-1AD", "assay": "Anti-viral activity alone or combined with 25 µM RTV, relative to 25 µM RTV, HIV-1AD", "assay_type": "cell-based", "procedure": "as §4\n(§5) Combinatorial effect of drug was tested combining 25 μM RTV and higher or lower concentrations than IC50 of lead compounds. Combinations of compounds 18, 22, 27, 32 or 35 with 25 μM RTV were non-toxic in TZM-bl cells. Combination with RTV increased antiviral activity of all compounds against both PI-sensitive and PI-resistant HIV-1 variants (Figure 2).\n(§6) Table S2. Fold change of compounds (18, 22, 27, 32 or 35) alone or in combination with 25 µM RTV compared to 25 µM\n(§7) RTV. P values are reported in parenthesis with Bonferroni correction with significance p<0.0055; fold change >1 indicates […]\n(§8) are highlighted in yellow; (-) not performed. (1) Anti-viral activity against HIV-1; (2) Compounds identification number.\n(§9) Fold change of compounds compared to 25 µM RTV as reference […]"}, "[9]": {"tested_on": "HIV-1AD02", "assay": "Anti-viral activity alone or combined with 25 µM RTV, relative to 25 µM RTV, HIV-1AD02", "assay_type": "cell-based", "procedure": "as §4, §5, §6, §7, §8, §9"}, "[10]": {"details": "highest non-toxic concentration, day 4 luciferase"}}, "note": "pIC50: −log10 of the molar value.", "data": [{"smiles": "Nc1nc(N)c(N=Nc2ccc(C(=O)O)c(O)c2)c(N)n1", "note": "[Compound 18]", "values": [{"measurement": "Inhibition of PR subtype A", "setting": "[1]", "value": "+"}, {"measurement": "Inhibition of PR subtype B", "setting": "[2]", "value": "+"}, {"measurement": "Inhibition of PR subtype C", "setting": "[3]", "value": "+"}, {"measurement": "toxicity (more than 10% decline in viability)", "setting": "[4]; 200 μM, day 4", "value": "non-toxic"}, {"measurement": "toxicity of combination with 25 μM RTV", "setting": "[4]; compound combined with 25 μM RTV", "value": "non-toxic"}, {"measurement": "reduction of cell viability", "setting": "[5]", "value": 28, "unit": "%"}, {"measurement": "pIC50", "setting": "[6]; PI-sensitive variant", "value": 4.20}, {"measurement": "reduction of replication of HIV-1AD", "setting": "[6]; [10]", "value": "more than 80%"}, {"measurement": "reduction of replication of HIV-1AD02", "setting": "[7]; [10]", "value": "more than 80%"}, {"measurement": "pIC50", "setting": "[7]; multi PI-resistant variant", "value": 4.16}, {"measurement": "Fold change compared to 25 µM RTV", "setting": "[8]; compound 25 µM with 25 µM RTV", "value": 0.54, "unit": "fold"}, {"measurement": "Fold change compared to 25 µM RTV", "setting": "[8]; compound 50 µM with 25 µM RTV", "value": 0.32, "unit": "fold"}, {"measurement": "Fold change compared to 25 µM RTV", "setting": "[8]; compound 100 µM with 25 µM RTV", "value": 0.40, "unit": "fold"}, {"measurement": "Fold change compared to 25 µM RTV", "setting": "[8]; compound alone, 25 µM", "value": 1.12, "unit": "fold"}, {"measurement": "Fold change compared to 25 µM RTV", "setting": "[8]; compound alone, 50 µM", "value": 1.13, "unit": "fold"}, {"measurement": "Fold change compared to 25 µM RTV", "setting": "[8]; compound alone, 100 uM", "value": 0.87, "unit": "fold"}, {"measurement": "Fold change compared to 25 µM RTV", "setting": "[9]; HIV-1AD02, compound 25 µM with 25 µM RTV", "value": 0.75, "unit": "fold"}, {"measurement": "Fold change compared to 25 µM RTV", "setting": "[9]; HIV-1AD02, compound 50 µM with 25 µM RTV", "value": 0.60, "unit": "fold"}, {"measurement": "Fold change compared to 25 µM RTV", "setting": "[9]; HIV-1AD02, compound 100 µM with 25 µM RTV", "value": 0.53, "unit": "fold"}, {"measurement": "Fold change compared to 25 µM RTV", "setting": "[9]; HIV-1AD02, compound alone, 25 µM", "value": 3.42, "unit": "fold"}, {"measurement": "Fold change compared to 25 µM RTV", "setting": "[9]; HIV-1AD02, compound alone, 50 µM", "value": 3.24, "unit": "fold"}, {"measurement": "Fold change compared to 25 µM RTV", "setting": "[9]; HIV-1AD02, compound alone, 100 uM", "value": 2.41, "unit": "fold"}]}]}
